Source: patent US20160045505A1, “COMPOUNDS AND COMPOSITIONS FOR THE TREATMENT OF PARASITIC DISEASES” (NOVARTIS AG, priority 2013, published 2016)
pEC50: −log10 of the molar value. Where two headings read alike, the source gives them in different places.

What was measured:
[1] = system: Trypanosoma brucei Lister 427 strain, bloodstream form; test: Assay for proliferation of kinetoplastid parasite Trypanosoma brucei (Cell Titer Glo, 48 hours); type: cell-based; settings: Trypanosoma brucei, read-out: T. brucei EC50
How it was run: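 Bloodstream-form T. brucei Lister 427 in HMI-9 medium was exposed to compound (DMSO vehicle) for 48 hours at 37° C, 5% CO2. Parasite growth was read as ATP by CellTiter-Glo luminescence, with EC50 calculated from percent inhibition.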

[2] = system: L. donovani HU3 strain in mouse peritoneal macrophages; test: Assay for proliferation of Leishmania parasites in infected mouse peritoneal macrophages (SybrGreen staining, high-content imaging, 5 days); type: cell-based, Leishmania donovani; settings: Leishmania donovani, Peritoneal macrophage, L. donovani in mouse peritoneal macrophages, inhibition of proliferation; read-out: L. donovani Macrophage EC50
[3] = system: Leishmania donovani axenic amastigote parasites; test: Leishmania donovani axenic amastigote proliferation assay (Cell TiterGlo luminescence, 2 day incubation); type: cell-based; settings: Leishmania donovani, axenic amastigotes, inhibition of proliferation; read-out: L. donovani amastigotes EC50
[4] = system: Trypanosoma cruzi amastigotes (Tulahuen strain expressing Lac-Z) cultured in 3T3 fibroblast cells; test: microbe, parasite or virus in culture; type: cell-based; settings: Trypanosoma cruzi, TULAHUEN, Fibroblast, T. cruzi amastigotes in 3T3 fibroblast cells, inhibition of proliferation; read-out: T cruzi EC50
[5] = T. brucei Lister 427 bloodstream form, inhibition of proliferation

## CCN(C)C(=O)Nc1ccc(Cl)c(-c2cn3cc(NC(=O)OC(C)C)cnc3n2)c1 [Compound 250]
[1]; [5]
  pEC50: 6.95
[2]
  pEC50: 6.08
[3]
  pEC50: 6.30
[4]
  pEC50: 6.20

## Cc1nc(C)c(C(=O)Nc2ccc(F)c(-c3cn4cc(-c5cnccn5)cnc4n3)c2)o1 [Compound 251]
[1]; [5]
  pEC50: 7.35
[2]
  pEC50: 7.07
[3]
  pEC50: 7.46
[4]
  pEC50: 7.21

## CC(C)OC(=O)Nc1cnc2nc(-c3cc(NC(N)=O)ccc3Cl)cn2c1 [Compound 252]
[1]; [5]
  pEC50: 4.48
[2]
  pEC50: < 4.30
[3]
  pEC50: < 4.60
[4]
  pEC50: < 4.70

## CC(C)OC(=O)Nc1cnc2nc(-c3cc(NC(=O)N(C)CC(F)(F)F)ccc3Cl)cn2c1 [Compound 255]
[1]; [5]
  pEC50: 6.91
[2]
  pEC50: 6.30
[3]
  pEC50: 6.44
[4]
  pEC50: 6.48

## CC(C)OC(=O)Nc1cnc2nc(-c3cc(NC(=O)N(C)c4nccn4C)ccc3Cl)cn2c1 [Compound 256]
[1]; [5]
  pEC50: 4.50
[2]
  pEC50: < 4.30
[3]
  pEC50: < 4.60
[4]
  pEC50: < 4.70

## CC(C)OC(=O)Nc1cnc2nc(-c3cc(NC(=O)NN)ccc3Cl)cn2c1 [Compound 257]
[1]; [5]
  pEC50: 5.33
[2]
  pEC50: < 4.47
[3]
  pEC50: 5.04
[4]
  pEC50: 5.39

## CC(C)OC(=O)Nc1cnc2nc(-c3cc(NC(=O)N4C[C@@H]5C[C@H]4CO5)ccc3Cl)cn2c1 [Compound 258]
[1]; [5]
  pEC50: 4.88
[2]
  pEC50: < 4.37
[3]
  pEC50: 4.70
[4]
  pEC50: < 4.70

## CC(C)OC(=O)Nc1cnc2nc(-c3cc(NC(=O)N4CCCC4c4ccccn4)ccc3Cl)cn2c1 (stereo not shown) [Compound 259]
[1]; [5]
  pEC50: 4.46
[2]
  pEC50: 4.62
[3]
  pEC50: < 4.65
[4]
  pEC50: 4.96

## CC(C)OC(=O)Nc1cnc2nc(-c3cc(NC(=O)N4CCC[C@@H]4C(F)(F)F)ccc3Cl)cn2c1 [Compound 260]
[1]; [5]
  pEC50: < 4.30
[2]
  pEC50: 5.42
[3]
  pEC50: < 4.60
[4]
  pEC50: 5.34

## CC(C)OC(=O)Nc1cnc2nc(-c3cc(NC(=O)N4CCC5(C4)CC5(F)F)ccc3Cl)cn2c1 (stereo not shown) [Compound 261]
[1]; [5]
  pEC50: 5.91
[2]
  pEC50: 5.15
[3]
  pEC50: 5.36
[4]
  pEC50: 5.72

## CC(C)CNC(=O)Nc1ccc(Cl)c(-c2cn3cc(NC(=O)OC(C)C)cnc3n2)c1 [Compound 263]
[1]; [5]
  pEC50: 5.96
[2]
  pEC50: 5.45
[3]
  pEC50: 5.76
[4]
  pEC50: 5.88

## CC(C)OC(=O)Nc1cnc2nc(-c3cc(NC(=O)N4CC[C@H](F)C4)ccc3Cl)cn2c1 [Compound 264]
[1]; [5]
  pEC50: 5.37
[2]
  pEC50: < 4.85
[3]
  pEC50: 5.32
[4]
  pEC50: 5.33

## CO[C@@H]1CCN(C(=O)Nc2ccc(Cl)c(-c3cn4cc(NC(=O)OC(C)C)cnc4n3)c2)C1 [Compound 265]
[1]; [5]
  pEC50: 5.81
[2]
  pEC50: 5.37
[3]
  pEC50: 6.01
[4]
  pEC50: 5.41

## CC(C)OC(=O)Nc1cnc2nc(-c3cc(NC(=O)N4CC(F)(F)C(F)(F)C4)ccc3Cl)cn2c1 [Compound 266]
[1]; [5]
  pEC50: 5.84
[2]
  pEC50: 5.47
[3]
  pEC50: 5.90
[4]
  pEC50: 5.93

## CC(C)OC(=O)Nc1cnc2nc(-c3cc(NC(=O)N4CC[C@@H](F)C4)ccc3Cl)cn2c1 [Compound 267]
[1]; [5]
  pEC50: 6.94
[2]
  pEC50: 5.74
[3]
  pEC50: 6.31
[4]
  pEC50: 5.72

## CC(C)OC(=O)Nc1cnc2nc(-c3cc(NC(=O)NC4CCC4)ccc3Cl)cn2c1 [Compound 269]
[1]; [5]
  pEC50: 5.45
[2]
  pEC50: 4.82
[3]
  pEC50: 5.02
[4]
  pEC50: 5.38

## CC(C)OC(=O)Nc1cnc2nc(-c3cc(NC(=O)N4C(C)CCC4C)ccc3Cl)cn2c1 (stereo not shown) [Compound 270]
[1]; [5]
  pEC50: 5.39
[2]
  pEC50: 5.66
[3]
  pEC50: 5.54
[4]
  pEC50: 6.15

## CC(C)OC(=O)Nc1cnc2nc(-c3cc(NC(=O)N4CCC(N(C)C)C4)ccc3Cl)cn2c1 (stereo not shown) [Compound 275]
[1]; [5]
  pEC50: 4.46
[2]
  pEC50: 4.77
[3]
  pEC50: < 4.60
[4]
  pEC50: 4.93

## CC(=O)N(C)C1CCN(C(=O)Nc2ccc(Cl)c(-c3cn4cc(NC(=O)OC(C)C)cnc4n3)c2)C1 (stereo not shown) [Compound 276]
[1]; [5]
  pEC50: 5.06
[2]
  pEC50: < 4.30
[3]
  pEC50: < 4.60
[4]
  pEC50: < 4.70

## CC(C)OC(=O)Nc1cnc2nc(-c3cc(NC(=O)N4CC[C@@H](O)C4)ccc3Cl)cn2c1 [Compound 286]
[1]; [5]
  pEC50: 4.53
[2]
  pEC50: < 4.30
[3]
  pEC50: < 4.71
[4]
  pEC50: < 4.70

## CC(C)OC(=O)Nc1cnc2nc(-c3cc(NC(=O)N4CC(F)C4)ccc3F)cn2c1 [Compound 287]
[1]; [5]
  pEC50: 7.11
[2]
  pEC50: 6.40
[3]
  pEC50: 6.92
[4]
  pEC50: 5.84

## O=C(Nc1ccc(F)c(-c2cn3cc(-c4ccccn4)cnc3n2)c1)N1CC(F)(F)C1 [Compound 296, 3,3-difluoro-N-(4-fluoro-3-(6-(pyridin-2-yl)imidazo[1,2-a]pyrimidin-2-yl)phenyl)azetidine-1-carboxamide]
[1]
  pEC50: 7.92
[2]
  pEC50: 7.89
[3]
  pEC50: 8.40
[4]
  pEC50: 7.85

## O=C(Nc1ccc(F)c(-c2cn3cc(C(F)(F)F)cnc3n2)c1)N1CC[C@H](F)C1 [Compound 297]
[1]; [5]
  pEC50: 7.29
[2]
  pEC50: 6.65
[3]
  pEC50: 7.28
[4]
  pEC50: 7.43

## CN(C)C(=O)Nc1ccc(F)c(-c2cn3cc(C(F)(F)F)cnc3n2)c1 [Compound 298]
[1]; [5]
  pEC50: 6.45
[2]
  pEC50: 5.65
[3]
  pEC50: 6.11
[4]
  pEC50: 6.28

## O=C(Nc1ccc(F)c(-c2cn3cc(C(F)(F)F)cnc3n2)c1)N1CCC1 [Compound 299]
[1]; [5]
  pEC50: 7.47
[2]
  pEC50: 6.75
[3]
  pEC50: 7.04
[4]
  pEC50: 7.35

## O=C(Nc1ccc(F)c(-c2cn3cc(C(F)(F)F)cnc3n2)c1)N1CC(F)(F)C1 [Compound 300]
[1]; [5]
  pEC50: 6.81
[2]
  pEC50: 6.40
[3]
  pEC50: 7.05
[4]
  pEC50: 6.83

## CC(C)OC(=O)Nc1ccc(F)c(-c2cn3cc(C(F)(F)F)cnc3n2)c1 [Compound 301, isopropyl (4-fluoro-3-(6-(trifluoromethyl)imidazo[1,2-a]pyrimidin-2-yl)phenyl)carbamate]
[1]
  pEC50: 6.51
[2]
  pEC50: < 4.49
[3]
  pEC50: 6.14
[4]
  pEC50: 6.35

## COCCOC(=O)Nc1cnc2nc(-c3cc(NC(=O)c4oc(C)nc4C)ccc3F)cn2c1 [Compound 304]
[1]; [5]
  pEC50: 5.85
[2]
  pEC50: 4.98
[3]
  pEC50: 6.27
[4]
  pEC50: 5.62

## CCOC(=O)Nc1cnc2nc(-c3cc(NC(=O)c4oc(C)nc4C)ccc3F)cn2c1 [Compound 305]
[1]; [5]
  pEC50: 6.79
[2]
  pEC50: 6.57
[3]
  pEC50: 6.95
[4]
  pEC50: 6.30

## Cc1nc(C)c(C(=O)Nc2ccc(F)c(-c3cn4cc(NC(=O)OC5CCCC5)cnc4n3)c2)o1 [Compound 306]
[1]; [5]
  pEC50: 6.44
[2]
  pEC50: 6.08
[3]
  pEC50: 6.50
[4]
  pEC50: 6.17

## Cc1nc(C)c(C(=O)Nc2ccc(F)c(-c3cn4cc(NC(=O)OCCF)cnc4n3)c2)o1 [Compound 307]
[1]; [5]
  pEC50: 6.45
[2]
  pEC50: 6.37
[3]
  pEC50: 6.60
[4]
  pEC50: 5.60

## Cc1nc(C)c(C(=O)Nc2ccc(F)c(-c3cn4cc(NC(=O)OCC(C)C)cnc4n3)c2)o1 [Compound 308]
[1]; [5]
  pEC50: 6.88
[2]
  pEC50: 6.47
[3]
  pEC50: 6.68
[4]
  pEC50: 6.48

## CCC(C)OC(=O)Nc1cnc2nc(-c3cc(NC(=O)c4oc(C)nc4C)ccc3F)cn2c1 (stereo not shown) [Compound 309]
[1]; [5]
  pEC50: 6.88
[2]
  pEC50: 6.69
[3]
  pEC50: 6.96
[4]
  pEC50: 6.56

## COC(=O)Nc1cnc2nc(-c3cc(NC(=O)c4oc(C)nc4C)ccc3F)cn2c1 [Compound 310]
[1]; [5]
  pEC50: 6.53
[2]
  pEC50: 6.25
[3]
  pEC50: 6.61
[4]
  pEC50: 5.91

## C=C(C)OC(=O)Nc1cnc2nc(-c3cc(NC(=O)c4oc(C)nc4C)ccc3F)cn2c1 [Compound 311]
[1]; [5]
  pEC50: 5.78
[2]
  pEC50: 4.92
[3]
  pEC50: 6.79
[4]
  pEC50: 5.25

## Cc1nc(C)c(C(=O)Nc2ccc(F)c(-c3cn4cc(NC(=O)OC5(C)CC5)cnc4n3)c2)o1 [Compound 312]
[1]; [5]
  pEC50: 7.27
[2]
  pEC50: 6.86
[3]
  pEC50: 6.92
[4]
  pEC50: 6.36

## COCCOC(=O)Nc1cnc2nc(-c3cc(NC(=O)N4CCCC4)ccc3F)cn2c1 [Compound 313]
[1]; [5]
  pEC50: 6.30
[2]
  pEC50: < 4.30
[3]
  pEC50: 6.12
[4]
  pEC50: 4.88

## CC(C)OC(=O)Nc1ccc(F)c(-c2cn3cc(-c4ccccn4)cnc3n2)c1 [Compound 314]
[1]; [5]
  pEC50: 7.29
[2]
  pEC50: 7.02
[3]
  pEC50: 7.34
[4]
  pEC50: 7.82

## Cc1nc(C)c(C(=O)Nc2ccc(F)c(-c3cn4cc(NS(=O)(=O)C(C)C)cnc4n3)c2)o1 [Compound 315, N-(4-fluoro-3-(6-(1-methylethylsulfonamido)imidazo[1,2-a]pyrimidin-2-yl)phenyl)-2,4-dimethyloxazole-5-carboxamide]
[1]; [5]
  pEC50: 5.36
[2]
  pEC50: 4.72
[3]
  pEC50: 5.60
[4]
  pEC50: < 4.70

## O=C(Nc1ccc(F)c(-c2cn3cc(-c4ccccc4)cnc3n2)c1)N1CC(F)C1 [Compound 317, 3-fluoro-N-(4-fluoro-3-(6-phenylimidazo[1,2-a]pyrimidin-2-yl)phenyl)azetidine-1-carboxamide]
[1]; [5]
  pEC50: 7.92
[2]
  pEC50: 7.42
[3]
  pEC50: 7.85
[4]
  pEC50: 7.92

## O=C(Nc1ccc(F)c(-c2cn3cc(C4=CCOCC4)cnc3n2)c1)N1CC(F)C1 [Compound 318]
[1]; [5]
  pEC50: 7.72
[2]
  pEC50: 6.88
[3]
  pEC50: 7.51
[4]
  pEC50: 6.84

## O=C(Nc1ccc(F)c(-c2cn3cc(-c4ccccc4)cnc3n2)c1)N1CC(F)(F)C1 [Compound 319]
[1]; [5]
  pEC50: 7.70
[2]
  pEC50: 6.99
[3]
  pEC50: 7.48
[4]
  pEC50: 7.70

## O=C(Nc1ccc(F)c(-c2cn3cc(C4=CCOCC4)cnc3n2)c1)N1CC(F)(F)C1 [Compound 320]
[1]; [5]
  pEC50: 7.46
[2]
  pEC50: 6.74
[3]
  pEC50: 7.24
[4]
  pEC50: 6.73
